Columns and labels:
[1] = biological target: Serine/threonine-protein kinase RAF and Dual specificity mitogen-activated protein kinase kinase 1 (Raf/MEK) (Homo sapiens, UniProt P04049+Q02750); assay: Inhibitory activity against Raf/MEK; assay type: functional
[2] = biological target: Inhibitor of NF-kappa-B kinase (IKK) (Homo sapiens, UniProt O14920+O15111+Q9Y6K9); assay: Inhibitory activity against IKK; assay type: functional
[3] = biological target: T1, 3-phosphoinositide-dependent protein kinase 1 (Homo sapiens, UniProt O15530); assay: Inhibitory activity against PDK1; assay type: functional
T1 sequence (O15530 whole entry): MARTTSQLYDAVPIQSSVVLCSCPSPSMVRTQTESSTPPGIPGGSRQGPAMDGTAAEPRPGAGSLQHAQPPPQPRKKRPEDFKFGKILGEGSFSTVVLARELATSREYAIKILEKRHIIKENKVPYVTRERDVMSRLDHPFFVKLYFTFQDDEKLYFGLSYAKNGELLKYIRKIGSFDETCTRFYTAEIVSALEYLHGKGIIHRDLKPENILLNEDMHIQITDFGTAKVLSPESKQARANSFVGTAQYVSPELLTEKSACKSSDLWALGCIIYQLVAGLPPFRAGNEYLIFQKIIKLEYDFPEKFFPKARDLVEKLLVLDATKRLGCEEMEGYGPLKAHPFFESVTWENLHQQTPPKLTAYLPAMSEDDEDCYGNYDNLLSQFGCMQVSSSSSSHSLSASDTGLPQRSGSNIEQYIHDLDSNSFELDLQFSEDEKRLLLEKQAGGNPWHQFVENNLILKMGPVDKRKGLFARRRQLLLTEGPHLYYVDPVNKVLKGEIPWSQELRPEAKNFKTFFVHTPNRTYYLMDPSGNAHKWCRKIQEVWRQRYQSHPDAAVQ

[4] = biological target: T2, Proto-oncogene tyrosine-protein kinase Src (Homo sapiens, UniProt P12931); assay: Inhibitory activity against non-receptor tyrosine kinase Src in enzyme assay
T2 sequence (P12931 2-536 limits assumed): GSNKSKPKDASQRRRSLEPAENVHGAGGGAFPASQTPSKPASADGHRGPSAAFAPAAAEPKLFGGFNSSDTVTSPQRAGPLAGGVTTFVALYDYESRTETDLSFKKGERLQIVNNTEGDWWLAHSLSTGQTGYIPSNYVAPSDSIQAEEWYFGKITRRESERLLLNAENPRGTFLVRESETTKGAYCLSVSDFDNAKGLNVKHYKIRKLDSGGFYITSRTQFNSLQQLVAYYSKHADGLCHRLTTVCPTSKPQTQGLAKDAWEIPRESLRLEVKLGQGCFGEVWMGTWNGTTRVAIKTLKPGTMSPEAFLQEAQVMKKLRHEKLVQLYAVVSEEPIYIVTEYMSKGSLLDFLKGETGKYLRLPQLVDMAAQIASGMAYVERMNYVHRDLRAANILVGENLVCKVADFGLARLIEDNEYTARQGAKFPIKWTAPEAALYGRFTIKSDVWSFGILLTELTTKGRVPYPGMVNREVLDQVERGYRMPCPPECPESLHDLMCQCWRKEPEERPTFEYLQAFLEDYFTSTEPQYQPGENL

[5] = biological target: Serine/threonine-protein kinase AKT (Homo sapiens, UniProt P31751+Q9Y243+P31749); assay: Inhibitory activity against AKT; assay type: functional
[6] = biological target: T2, Proto-oncogene tyrosine-protein kinase Src; assay: Inhibitory activity against non-receptor tyrosine kinase Src in cell assay; assay type: functional
[7] = biological target: Cyclin-dependent kinase 4 (Homo sapiens, UniProt P11802); assay: Inhibitory activity against CDK4; assay type: functional
Sequence of Cyclin-dependent kinase 4 (P11802 whole entry): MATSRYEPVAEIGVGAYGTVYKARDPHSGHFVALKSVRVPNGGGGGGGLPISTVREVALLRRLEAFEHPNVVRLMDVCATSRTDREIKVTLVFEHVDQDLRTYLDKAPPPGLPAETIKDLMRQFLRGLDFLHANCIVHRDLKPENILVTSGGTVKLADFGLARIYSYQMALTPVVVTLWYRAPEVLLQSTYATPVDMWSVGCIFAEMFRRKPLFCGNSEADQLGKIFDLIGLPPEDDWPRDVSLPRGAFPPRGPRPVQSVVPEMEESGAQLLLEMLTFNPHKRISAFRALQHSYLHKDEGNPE

Sequence of Inhibitor of NF-kappa-B kinase (IKK) (O14920 whole entry): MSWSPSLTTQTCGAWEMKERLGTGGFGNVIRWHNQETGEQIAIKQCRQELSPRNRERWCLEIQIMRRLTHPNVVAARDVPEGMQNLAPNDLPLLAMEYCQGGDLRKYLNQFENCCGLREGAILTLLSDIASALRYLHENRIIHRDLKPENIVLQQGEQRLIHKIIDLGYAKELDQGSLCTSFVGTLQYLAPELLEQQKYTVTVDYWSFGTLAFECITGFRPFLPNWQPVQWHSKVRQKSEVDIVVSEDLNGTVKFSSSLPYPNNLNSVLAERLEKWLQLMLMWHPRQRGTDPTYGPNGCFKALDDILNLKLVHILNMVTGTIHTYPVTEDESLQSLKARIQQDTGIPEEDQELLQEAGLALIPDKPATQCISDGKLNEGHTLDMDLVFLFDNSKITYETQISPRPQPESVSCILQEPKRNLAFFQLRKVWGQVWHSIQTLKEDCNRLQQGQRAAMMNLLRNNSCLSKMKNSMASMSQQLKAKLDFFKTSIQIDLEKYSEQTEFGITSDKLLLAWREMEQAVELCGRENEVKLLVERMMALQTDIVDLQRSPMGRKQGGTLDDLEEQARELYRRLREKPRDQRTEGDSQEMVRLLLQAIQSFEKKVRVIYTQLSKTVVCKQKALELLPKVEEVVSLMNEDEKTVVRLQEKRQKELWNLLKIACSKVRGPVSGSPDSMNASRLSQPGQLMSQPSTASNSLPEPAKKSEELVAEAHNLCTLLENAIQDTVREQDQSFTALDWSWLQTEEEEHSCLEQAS
Sequence of Inhibitor of NF-kappa-B kinase (IKK) (O15111 whole entry): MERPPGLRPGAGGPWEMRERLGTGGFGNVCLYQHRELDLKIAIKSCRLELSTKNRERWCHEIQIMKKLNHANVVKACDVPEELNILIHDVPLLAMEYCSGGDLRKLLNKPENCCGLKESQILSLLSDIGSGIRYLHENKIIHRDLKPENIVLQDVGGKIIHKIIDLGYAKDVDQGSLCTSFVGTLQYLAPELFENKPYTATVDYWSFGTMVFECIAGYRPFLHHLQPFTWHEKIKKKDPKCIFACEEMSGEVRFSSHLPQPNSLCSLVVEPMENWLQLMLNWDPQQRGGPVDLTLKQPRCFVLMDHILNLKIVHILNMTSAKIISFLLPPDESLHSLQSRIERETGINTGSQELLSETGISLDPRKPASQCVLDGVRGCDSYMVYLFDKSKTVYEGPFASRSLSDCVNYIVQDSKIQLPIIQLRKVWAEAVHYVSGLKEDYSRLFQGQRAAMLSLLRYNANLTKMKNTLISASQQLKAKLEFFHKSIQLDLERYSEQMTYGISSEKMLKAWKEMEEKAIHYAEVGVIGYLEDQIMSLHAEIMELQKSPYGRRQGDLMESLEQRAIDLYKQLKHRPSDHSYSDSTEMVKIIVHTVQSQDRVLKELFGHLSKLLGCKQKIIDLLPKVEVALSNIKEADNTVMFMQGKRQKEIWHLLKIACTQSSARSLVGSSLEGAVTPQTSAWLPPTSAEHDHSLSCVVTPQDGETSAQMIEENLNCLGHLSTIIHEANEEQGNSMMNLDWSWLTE
Sequence of Inhibitor of NF-kappa-B kinase (IKK) (Q9Y6K9 whole entry): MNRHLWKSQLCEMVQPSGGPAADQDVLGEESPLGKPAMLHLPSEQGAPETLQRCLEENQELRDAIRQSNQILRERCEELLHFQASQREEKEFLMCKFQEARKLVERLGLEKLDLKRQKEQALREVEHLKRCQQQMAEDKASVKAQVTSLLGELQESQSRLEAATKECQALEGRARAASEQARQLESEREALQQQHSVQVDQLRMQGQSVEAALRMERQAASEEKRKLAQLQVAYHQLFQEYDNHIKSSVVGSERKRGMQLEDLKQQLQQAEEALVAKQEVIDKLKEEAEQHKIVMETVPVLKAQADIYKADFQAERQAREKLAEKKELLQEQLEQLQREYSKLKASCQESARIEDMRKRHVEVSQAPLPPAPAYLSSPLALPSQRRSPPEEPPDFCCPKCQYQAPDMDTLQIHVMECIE

## COc1cc(Nc2c(C#N)cnc3cc(-c4ccc(CN5CCN(C)CC5)cn4)sc23)c(Cl)cc1Cl
[1]
  IC50: 1600 nM
[2]
  IC50: > 10000 nM
[3]
  IC50: > 10000 nM
[4]
  IC50: 13 nM
[5]
  IC50: > 10000 nM
[6]
  IC50: 420 nM
[7]
  IC50: > 10000 nM

From ChEMBL document CHEMBL1140394, “Inhibition of Src kinase activity by 7-[(2,4-dichloro-5-methoxyphenyl)amino]-2-heteroaryl-thieno[3,2-b]pyridine-6-carbonitriles” (Bioorg Med Chem Lett, 2005)
